Reference: US20120010245A1, “TRANSDERMAL PHARMACEUTICAL COMPOSITIONS COMPRISING A SERM” (BESINS HEALTHCARE LUXEMBOURG SARL, priority 2008, published 2012)
≈ marks a conversion by molar mass, not a printed value. Where “and” joins values, the source holds several entries; their conditions need not be identical. Identical values can stand only once. Counter-ions that a name gives are not always drawn. Like-named read-outs stand apart in the source and are kept apart here. One block for each molecule: values may come before it.

How the values were obtained:
[1] = Stability in analysis medium (cetrimide solution, 3%); assay type: physicochemical; conditions: 3% cetrimide solution
[2] = Skin permeation study in side-by-side diffusion cells; assay type: in vitro ADME, pig
Protocol: Skin permeation studies were carried out using opaque side-by-side diffusion cells with an effective diffusion area of 0.71 cm^2. […] The receptor solution was a 3% w/v cetrimide solution and allowed sink conditions to be maintained. The receptor phase was magnetically stirred at 100 rpm. Dermatomed abdominal pig skin (750 μm) was used. Skin was allowed to hydrate with isotonic saline solution for 1 h before the experiment was started. […] Experiments were performed under complete occlusion. Post-application, at scheduled times (1, 9, 20 and 24 hours), 1 ml samples were taken from the receiver compartment and replaced with the same volume of fresh, temperature-equilibrated receptor fluid. Samples were filtered through 0.45 μm PVDF membrane filters. The amount of endoxifen in the samples was determined by HPLC using the method described above.

[3] = Solubility studies (saturated solubility, HPLC); assay type: physicochemical; conditions: for solubility: aqueous with cosolvent or surfactant or cyclodextrin, thermodynamic from solid
Protocol: (§1) The saturated solubilities of endoxifen were determined in a mixture of absolute ethanol/water (70:30, w/w) by shaking an excess amount of drug in 1 ml of the co-solvent system for at least 24 hours at room temperature. The concentrations of the saturated solutions were determined by HPLC analysis after appropriate dilution.
as §1, with “clomifene citrate” for “endoxifen”, “series” for “mixture”, “of” for “of absolute”, “mixtures (40:60, 50:50, 60:40 and 70:30,” for “(70:30,”, “0.6” for “1”, “temperature. […]” for “temperature.”
The concentrations of the saturated solutions were determined by HPLC analysis after appropriate dilution.
as §1, with “toremifene” for “endoxifen”, “series” for “mixture”, “of” for “of absolute”, “mixtures (40:60, 50:50, 60:40 and 70:30,” for “(70:30,”, “temperature. […]” for “temperature.”

[4] = Solubility studies (saturated solubility, HPLC); assay type: physicochemical; conditions: 3% w/v cetrimide solution, aqueous with cosolvent or surfactant or cyclodextrin, thermodynamic from solid, room temperature
[5] = 1 h, saturated solution of the drug in 70:30 w/w ethanol-water, — not defined here (Table 2: below LOD)
[6] = 1 hr, saturated solution in 70:30 w/w ethanol-water, donor 30.46 mg/mL
[7] = ethanol/water 70:30 w/w co-solvent system, room temperature, read-out: Solubility in ethanol:water (70:30 w/w)

- Stability in analysis medium ([1]; 24 hours): stable
- cumulative permeation, Mean (±SD) [2, 5]: 3.38 μg/cm^2
- cumulative permeation, single cells [2, 5]: 3.38 μg/cm^2
- cumulative permeation, Mean (±SD) ([2]; 9 h, saturated solution of the drug in 70:30 w/w ethanol-water, — not defined here (Table 2: below LOD)): 1.53 ± 2.6 μg/cm^2
- cumulative permeation, Mean (±SD) ([2]; 20 h, saturated solution of the drug in 70:30 w/w ethanol-water): 3.89 ± 3.2 μg/cm^2
- solubility ([3]; 3% w/v cetrimide solution, room temperature, read-out: Solubility in 3% cetrimide solution): 302 ± 14 µg/mL (≈ 744 µM)
- Saturated solubility, Expt 1-3 ([3]; EtOH:Water 40:60 w/w, single experiments): 75.4 µg/mL and 74 µg/mL
- Saturated solubility, Expt 1-3 ([3]; EtOH:Water 50:50 w/w, single experiments): 333 µg/mL and 324 µg/mL
- Saturated solubility, Expt 1-3 ([3]; EtOH:Water 60:40 w/w, single experiments): 1063 µg/mL and 1009 µg/mL
- Saturated solubility, Expt 1-3 ([3]; EtOH:Water 70:30 w/w, single experiments): 2698 µg/mL and 2623 µg/mL
- solubility ([3]; ethanol/water 40:60 w/w co-solvent system, EtOH:Water 40:60 w/w, n=3, read-out: Saturated solubility, Average concentration ± SD): 74.7 ± 1.1 µg/mL (≈ 184 µM)
- solubility ([3]; ethanol/water 40:60 w/w co-solvent system, EtOH:Water 40:60 w/w, single experiments, read-out: Saturated solubility, Expt 1-3): 74.8 µg/mL (≈ 184 µM)
- solubility ([3]; ethanol/water 50:50 w/w co-solvent system, EtOH:Water 50:50 w/w, n=3, read-out: Saturated solubility, Average concentration ± SD): 335 ± 15 µg/mL (≈ 825 µM)
- solubility ([3]; ethanol/water 50:50 w/w co-solvent system, EtOH:Water 50:50 w/w, single experiments, read-out: Saturated solubility, Expt 1-3): 350 µg/mL (≈ 862 µM)
- solubility ([3]; ethanol/water 60:40 w/w co-solvent system, EtOH:Water 60:40 w/w, n=3, read-out: Saturated solubility, Average concentration ± SD): 1050 ± 37 µg/mL (≈ 2600 µM)
- solubility ([3]; ethanol/water 60:40 w/w co-solvent system, EtOH:Water 60:40 w/w, single experiments, read-out: Saturated solubility, Expt 1-3): 1090 µg/mL (≈ 2680 µM)
- solubility ([3]; ethanol/water 70:30 w/w co-solvent system, EtOH:Water 70:30 w/w, n=3, read-out: Saturated solubility, Average concentration ± SD): 2730 ± 124 µg/mL (≈ 6720 µM)
- solubility ([3]; ethanol/water 70:30 w/w co-solvent system, EtOH:Water 70:30 w/w, single experiments, read-out: Saturated solubility, Expt 1-3): 2860 µg/mL (≈ 7050 µM)
SMILES: CN(C)CCOc1ccc(/C(=C(/CCCl)c2ccccc2)c2ccccc2)cc1 [toremifene]

- Stability in analysis medium ([1]; 30 hours): stable
- cumulative permeation, single cells ([2]; 9 hr, saturated solution in 70:30 v/v ethanol-water, — not defined here (Table 2: below LOD)): 4.1 μg/cm^2 and 3.3 μg/cm^2
- cumulative permeation, Average (±SD) ([2]; 20 hr, saturated solution in 70:30 v/v ethanol-water): 8.3 ± 4.7 μg/cm^2
- cumulative permeation, Average (±SD) ([2]; 24 hr, saturated solution in 70:30 v/v ethanol-water): 12.5 ± 6.3 μg/cm^2
- cumulative permeation, Average (±SD) ([2]; 24 hr, saturated solution in 70:30 v/v ethanol-water, listed as 4-OH tamoxifen): 12.5 μg/cm^2
SMILES: CCC(=C(c1ccc(O)cc1)c1ccc(OCCN(C)C)cc1)c1ccccc1 [4-OH Tamoxifen, 1-[4-(2-N-dimethylaminoethoxy)phenyl]-1-(4-hydroxyphenyl)-2-phenylbut-1-ene]

- solubility [4]: 6260 ± 280 µg/mL (≈ 16800 µM)
- Stability in analysis medium ([1]; 24 hours): stable
- experimental permeation after 24 hours relative to in silico prediction ([2]; 37.29 μg/cm^2 versus about 0.98 μg/cm^2 in 24 hours): 40 times higher
- cumulative permeation, Mean (±SD) ([2]; 9 hr, saturated solution in 70:30 w/w ethanol-water, donor 30.46 mg/mL): 0.31 ± 0.36 μg/cm^2
- cumulative permeation, Mean (±SD) ([2]; 20 hr, saturated solution in 70:30 w/w ethanol-water, donor 30.46 mg/mL): 17.24 ± 15.13 μg/cm^2
- solubility [3, 7]: 38700 µg/mL (≈ 104000 µM)
SMILES: CC/C(=C(\c1ccc(O)cc1)c1ccc(OCCNC)cc1)c1ccccc1 [endoxifen, 4-hydroxy-N-desmethyl-tamoxifen]
- cumulative permeation, Mean (±SD) [2, 6]: — ((—) below the limit of detection (LOD) of 30 ng/ml.)
- cumulative permeation, single cells [2, 6]: — ((—) below the limit of detection (LOD) of 30 ng/ml.)

- solubility ([4]; n=2): 8900 ± 200 µg/mL
- Stability in analysis medium ([1]; 24 hours): stable
- cumulative permeation, Mean (±SD) ([2]; 20 h, saturated solution in 70:30 w/w ethanol-water, donor 45.93±[…]): 0.62 ± 0.37 μg/cm^2
- solubility [3, 7]: 47400 ± 1700 µg/mL
SMILES: CC/C(=C(/c1ccc(OCCN(C)C)cc1)c1cccc(O)c1)c1ccccc1 [droloxifene citrate, 3-[(1E)-1-[4-[2-(Dimethylamino)ethoxy]phenyl]-2-phenyl-1-butenyl]phenol]
